Reference: publication PMC9021288 (Nature Communications, 2022)
“And” between values parts separate entries of the source, which are not always exact repeats. Equal values may be shown once. “Also recorded” adds a separate entry of the source.

Tests used:
[1] = Metabolite identification in dog plasma and urine; conditions: in vivo
[2] = Blood to plasma ratio, rat
hERG channel = biological target: T1, hERG channel (Homo sapiens, UniProt Q12809); assay: Automated patch clamp (Qpatch); assay type: cell-based
T1 construct: Metrion Biosciences
Experimental: (§1) Safety studies were performed by commercial services using their standard protocols. […] Genotoxicity was investigated using the Ames test (Bacterial Reverse Mutation Assay) (Covance Laboratories Ltd, North Yorkshire, England). In vitro mammalian cell micronucleus screening assay was studied in human peripheral blood lymphocytes (BioReliance Corporation, Rockville, USA). Cardiotoxicity was determined against the hERG channel in an automated patch clamp assay using the Qpatch or against the hNaV 1.5, hKV 1.5 and hCaV 1.2 using a manual patch-clamp technique (Metrion Biosciences, Cambridge, UK). Cytotoxicity in human and rat primary hepatocytes was assessed using the CellTiter-Blue assay performed by commercial services (KaLy-Cell). The viability of HepG2 cells was monitored through the addition of 1 mM resazurin. Following 6 h incubation, the relative amount of reduced resazurin was detected in a fluorimeter and compared to the assay controls (vehicle: 0.1% DMSO and positive control: 10 µM puromycin).

[3] = tested on: human peripheral blood lymphocytes; assay: In vitro micronucleus screening assay
Experimental: as §1

Renal excretion in rats = assay type: in vivo, rat
Experimental: A blood sample from the saphenous vein was collected into heparinized capillary tubes at multiple intervals between 0.25 and 24 h after dosing. Subsequently, samples were spun down at 1640 g for 5-10 min at 4 °C within 30 min after collection and plasma was collected. […] Urine was collected following an intravenous dose in both rat and dog, allowing renal clearance to be estimated. Human renal clearance was estimated from dog renal clearance as previously described[40] and other human PK parameters were predicted using allometric scaling and/or in vitro clearance data. PK parameters were calculated by naïve pooled approach using WinNonLin software (Phoenix, version 6.3).

[4] = tested on: mouse primary hepatocytes; assay: Hepatocyte stability, mouse; assay type: in vitro ADME
[5] = Population PK model in NSG mice; assay type: in vivo, female NSG mice; conditions: population PK model estimate
Experimental: The experimental designs are summarized in Supplementary Table 30. […] Samples were processed under liquid-liquid extraction methods and analyzed by LC-MS/MS for quantitation in a Waters UPLC-TQD (Micromass, Manchester, UK).
Data preparation, exploration and model pre- and postprocessing were performed using R (version 3.6.3) and R package IQRtools (version 1.2.1 IntiQuan GmbH). Non-linear mixed-effects (NLME) modeling was used to estimate the PK and PD parameters using Monolix (Lixoft version MLX2018R2). The population PKPD model was developed with a two-stage approach: first, a population PK model was determined; then, the individual PK parameters were used as regression parameters and the PD parameters were estimated. The PD model consists of the balance between a parasite net growth rate and a drug killing rate. […] The growth rate of log-transformed parasite concentration was fixed at 0.03 /h based on prior experiments but estimating growth rate interindividual variability. Different Hill coefficients were tested.

[6] = 4-hour treatment + S9, 13.6 ug/ml
[7] = 4-hour treatment + S9, 19.4 ug/ml
[8] = 4-hour treatment + S9, 27.7 ug/ml
[9] = 4-hour treatment + S9, 39.5 ug/ml
[10] = 4-hour treatment + S9, 56.5 ug/ml
[11] = 4-hour treatment + S9, 80.7 ug/ml
[12] = 4-hour treatment + S9, 115 ug/ml
[13] = 4-hour treatment + S9, 165 ug/ml
[14] = 4-hour treatment + S9, 235 ug/ml
[15] = 4-hour treatment + S9, 336 ug/ml
[16] = 4-hour treatment + S9, 480 ug/ml
[17] = 4-hour treatment + S9, 686 ug/ml
[18] = 4-hour treatment + S9, 980 ug/ml
[19] = 4-hour treatment + S9, 1400 ug/ml
[20] = 4-hour treatment + S9, 2000 ug/ml
[21] = 4-hour treatment - S9, 13.6 ug/ml
[22] = 4-hour treatment - S9, 19.4 ug/ml
[23] = 4-hour treatment - S9, 27.7 ug/ml
[24] = 4-hour treatment - S9, 39.5 ug/ml
[25] = 4-hour treatment - S9, 56.5 ug/ml
[26] = 4-hour treatment - S9, 80.7 ug/ml
[27] = 4-hour treatment - S9, 115 ug/ml
[28] = 4-hour treatment - S9, 165 ug/ml
[29] = 4-hour treatment - S9, 235 ug/ml
[30] = 4-hour treatment - S9, 336 ug/ml
[31] = 4-hour treatment - S9, 480 ug/ml
[32] = 4-hour treatment - S9, 686 ug/ml
[33] = 4-hour treatment - S9, 980 ug/ml
[34] = 4-hour treatment - S9, 1400 ug/ml
[35] = 4-hour treatment - S9, 2000 ug/ml

T1 sequence (Q12809 whole entry): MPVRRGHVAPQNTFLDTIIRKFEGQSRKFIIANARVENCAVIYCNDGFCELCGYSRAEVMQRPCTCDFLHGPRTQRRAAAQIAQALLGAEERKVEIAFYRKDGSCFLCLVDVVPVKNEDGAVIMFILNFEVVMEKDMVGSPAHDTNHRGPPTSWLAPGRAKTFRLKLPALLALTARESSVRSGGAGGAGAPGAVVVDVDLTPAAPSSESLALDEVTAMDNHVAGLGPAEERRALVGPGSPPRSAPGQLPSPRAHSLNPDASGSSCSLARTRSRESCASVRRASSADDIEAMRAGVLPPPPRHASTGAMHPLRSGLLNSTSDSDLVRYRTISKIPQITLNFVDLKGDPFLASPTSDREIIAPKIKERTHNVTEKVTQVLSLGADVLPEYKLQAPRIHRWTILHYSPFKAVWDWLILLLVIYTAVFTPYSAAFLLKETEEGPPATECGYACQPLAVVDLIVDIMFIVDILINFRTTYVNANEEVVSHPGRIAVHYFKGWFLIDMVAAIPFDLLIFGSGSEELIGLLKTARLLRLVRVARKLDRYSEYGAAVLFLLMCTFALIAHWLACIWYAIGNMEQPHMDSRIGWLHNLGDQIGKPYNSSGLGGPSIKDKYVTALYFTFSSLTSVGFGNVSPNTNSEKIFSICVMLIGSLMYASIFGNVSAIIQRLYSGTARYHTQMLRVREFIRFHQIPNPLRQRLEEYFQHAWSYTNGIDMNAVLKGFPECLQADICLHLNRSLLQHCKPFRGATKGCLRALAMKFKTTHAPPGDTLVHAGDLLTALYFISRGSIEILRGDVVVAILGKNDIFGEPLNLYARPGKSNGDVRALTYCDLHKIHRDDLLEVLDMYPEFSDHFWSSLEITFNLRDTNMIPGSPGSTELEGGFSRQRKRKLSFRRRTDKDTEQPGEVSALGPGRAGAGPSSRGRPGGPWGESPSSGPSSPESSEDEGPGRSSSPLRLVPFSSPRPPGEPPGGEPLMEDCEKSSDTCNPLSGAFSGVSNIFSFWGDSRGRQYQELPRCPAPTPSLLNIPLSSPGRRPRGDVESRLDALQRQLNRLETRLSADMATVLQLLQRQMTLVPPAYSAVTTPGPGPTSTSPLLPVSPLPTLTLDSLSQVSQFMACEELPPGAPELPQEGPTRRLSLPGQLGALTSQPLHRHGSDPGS

SMILES: C[C@@H](CNC(=O)[C@H](O)C(C)(C)CO)NC(=O)c1cc(F)c(F)cc1F [MMV693183]
- detected in Plasma [1]: Yes
- detected in Urine [1]: Yes
- B:P [2]: 0.91
- IC50 (hERG channel): > 10 µM
- CBPI [3, 6]: 1.808
- Cytotoxicity (%) [3, 6]: 12%
- CBPI [3, 7]: 1.792
- Cytotoxicity (%) [3, 7]: 14%
- CBPI [3, 8]: 1.76
- Cytotoxicity (%) [3, 8]: 17%
- CBPI [3, 9]: 1.788
- Cytotoxicity (%) [3, 9]: 14%
- CBPI [3, 10]: 1.84
- Cytotoxicity (%) [3, 10]: 9%
- CBPI [3, 11]: 1.792
- Cytotoxicity (%) [3, 11]: 14%
- CBPI [3, 12]: 1.86
- Cytotoxicity (%) [3, 12]: 7%
- CBPI [3, 13]: 1.824
- Cytotoxicity (%) [3, 13]: 10%
- CBPI [3, 14]: 1.772
- Cytotoxicity (%) [3, 14]: 16%
- CBPI [3, 15]: 1.824
- Cytotoxicity (%) [3, 15]: 10%
- CBPI [3, 16]: 1.848
- Cytotoxicity (%) [3, 16]: 8%
- Percentage of MNBN Cells/Total BN Cells counted (%) [3, 16]: 0.4%
- CBPI [3, 17]: 1.824
- Cytotoxicity (%) [3, 17]: 10%
- CBPI [3, 18]: 1.84
- Cytotoxicity (%) [3, 18]: 9%
- CBPI [3, 19]: 1.836
- Cytotoxicity (%) [3, 19]: 9%
- Percentage of MNBN Cells/Total BN Cells counted (%) [3, 19]: 0.6%
- CBPI [3, 20]: 1.388
- Cytotoxicity (%) [3, 20]: 58%
- Percentage of MNBN Cells/Total BN Cells counted (%) [3, 20]: 0.4%
- CBPI [3, 21]: 1.916
- Cytotoxicity (%) [3, 21]: 0%
- CBPI [3, 22]: 1.86
- Cytotoxicity (%) [3, 22]: 6%
- CBPI [3, 23]: 1.912
- Cytotoxicity (%) [3, 23]: 0%
- CBPI [3, 24]: 1.832
- Cytotoxicity (%) [3, 24]: 9%
- CBPI [3, 25]: 1.864
- Cytotoxicity (%) [3, 25]: 6%
- CBPI [3, 26]: 1.876
- Cytotoxicity (%) [3, 26]: 4%
- CBPI [3, 27]: 1.88
- Cytotoxicity (%) [3, 27]: 4%
- CBPI [3, 28]: 1.804
- Cytotoxicity (%) [3, 28]: 12%
- CBPI [3, 29]: 1.84
- Cytotoxicity (%) [3, 29]: 8%
- CBPI [3, 30]: 1.792
- Cytotoxicity (%) [3, 30]: 14%
- CBPI [3, 31]: 1.8
- Cytotoxicity (%) [3, 31]: 13%
- Percentage of MNBN Cells/Total BN Cells counted (%) [3, 31]: 0.4%
- CBPI [3, 32]: 1.832
- Cytotoxicity (%) [3, 32]: 9%
- CBPI [3, 33]: 1.808
- Cytotoxicity (%) [3, 33]: 12%
- CBPI [3, 34]: 1.704
- Cytotoxicity (%) [3, 34]: 23%
- Percentage of MNBN Cells/Total BN Cells counted (%) [3, 34]: 0.4%
- CBPI [3, 35]: 1.496
- Cytotoxicity (%) [3, 35]: 46%
- Percentage of MNBN Cells/Total BN Cells counted (%) [3, 35]: 0.4%
- micronucleus test result ([3]; up to 2000 µg/ml, with or without S-9): No induction of micronuclei; also recorded: negative
- Urine fraction (Renal excretion in rats; Mean): 0.36
- Observed renal plasma clearance (Renal excretion in rats; Rat): 7.7 mL/min/kg
- Concentration corrected for dilution (Renal excretion in rats; rat urine after IV dosing, 400x diluted samples, individual rats R4, R5, R6): 27920.0 ng/mL and 106400.0 ng/mL and 15600.0 ng/mL
- drug eliminated in urine (Renal excretion in rats; rats, i.v. 3 mg/kg): 36-40%
- Compound Remaining (% of 0 min) ([4]; 0 min): 100%
- Compound Remaining (% of 0 min) ([4]; 5 min): 114%
- Compound Remaining (% of 0 min) ([4]; 10 min): 109%
- Compound Remaining (% of 0 min) ([4]; 20 min): 103%
- Compound Remaining (% of 0 min) ([4]; 40 min): 101%
- Compound Remaining (% of 0 min) ([4]; 60 min): 105%
- CL, apparent clearance [5]: 1.25 L/h
- Tk0, absorption time [5]: 0.364 h
- Vc, apparent central volume [5]: 2.25 L
- Vp1, apparent peripheral volume [5]: 799 L
- Vp2, apparent second peripheral volume [5]: 1.81 L
